Reference: patent publication US20030171575A1, “Process for improving sucralose purity and yield” (priority 2002, published 2003)

How the values were obtained:
[1] = Blinded three-sample taste panel, model soft drink with 100 ppm sucralose (Example 3); format: in vivo, panelists; settings: 100 ppm sucralose in model soft drink (0.14% citric acid, 0.04% trisodium phosphate, pH 3.2), against samples without sucralose
Protocol: Purified sucralose is prepared by the process of solvent-solvent extraction and sequential recrystallizations as shown in Examples 1 and 2 of the present invention. Next the taste of the resultant composition is tested in a beverage.
(§1) Sucralose solutions are prepared by adding crystalline sucralose to a model soft drink composition that contains 0.14% citric acid and 0.04% trisodium phosphate. The pH of this composition is 3.2. Crystalline sucralose compositions are added to the soft drink composition to yield final levels of 100 parts per million (ppm).
(§2) Panelists are selected from the general population, and no specific demographic parameters are utilized in recruiting the panelists. The product samples are prepared and served chilled. Portions are dispensed into individual servings for the panelists. Samples are presented to panelists in a blinded manner (samples are identified only by a random digit label). Each panelist receives three samples for tasting (one sample comprising 100 ppm sucralose and two samples not comprising sucralose), and panelists are given a randomized sequence in which to taste the samples. […]
Statistical significance of the correctness of the scores (i.e. panelist ability to detect the sample that is different from the other two) is determined by use of a statistical table that correlates the number of correct responses with a p value.

[2] = background statement; cited from earlier work
[3] = Blinded paired palatability panel, consumer product such as ice cream with 150 ppm sucralose (Example 5); format: in vivo, panelists; settings: 150 ppm sucralose in consumer product such as ice cream, served chilled
Protocol: Purified sucralose is prepared by the process of solvent-solvent extraction and sequential recrystallizations as shown in Examples 1 and 2 of the present invention. Next, sucralose is used to enhance the palatability of a consumer product.
The sucralose is added to one group (1G) of two groups (1G and 2G) of a consumer product such as ice cream to yield final levels of 150 ppm sucralose.
Panelists are selected from the general population, and no specific demographic parameters are utilized in recruiting the panelists. The two groups of samples are prepared and served chilled. Portions are dispensed into individual servings for the panelists. Samples are presented to panelists in a blinded manner (samples are identified only by a random digit label). Each panelist receives two samples for tasting, and panelists are given a randomized sequence in which to taste the samples. Thus, the order of tasting is completely random. In each set of two samples, one sample is from G1 and the other sample is from G2. Panelists are asked to select the sample that tastes the most palatable, record that result and record how confident they are of the result. […]
Statistical significance of the correctness of the scores (i.e., panelist ability to detect the most palatable sample) is determined by use of a statistical table that correlates the number of correct responses with a p value.

[4] = Blinded three-sample taste panel, model soft drink with 10 ppm sucralose (Example 7); format: in vivo, panelists; settings: 10 ppm sucralose in model soft drink (0.14% citric acid, 0.04% trisodium phosphate, pH 3.2)
Protocol: Purified sucralose is prepared by the process of solvent—solvent extraction and sequential recrystallizations as shown in Examples 1 and 2 of the present invention. Next, the effect on palatability of a beverage by purified sucralose is tested.
as §1, with “10 ppm sucralose.” for “100 parts per million (ppm).”
A model soft drink composition without sucralose is also prepared.
as §2, with “tasting,” for “tasting (one sample comprising 100 ppm sucralose and two samples not comprising sucralose),”
Statistical significance of the correctness of the scores (i.e., panelist ability to detect the sample that is different from the other two) is determined by use of a statistical table that correlates the number of correct responses with a p value.

## OC[C@H]1O[C@H](O[C@]2(CCl)O[C@H](CCl)[C@@H](O)[C@@H]2O)[C@H](O)[C@@H](O)[C@H]1Cl [Sucralose, 4,1′,6′-trichloro-4,1′,6′-trideoxygalactosucrose]
[1]
  palatability of the odd sample (comments of panelists choosing the correct sample): increased palatability
[2]
  sweetness intensity compared with sucrose: several hundred times
[3]
  palatability against samples not comprising sucralose: more palatable
[4]
  palatability against samples not comprising sucralose: more palatable
